Measurements as given in EP3368040B1, “METHODS AND COMPOSITIONS FOR RECOVERY FROM STROKE” (Eip Pharma, LLC, priority 2015, dated 2017).

Tests used:
animal models of stroke = details: administered 24-hours after stroke; Piao et al. 2003; cited from earlier work
cytokine production = details: inhibition of cytokine production; cited from earlier work
[1] = transient MCAO in rats: body weight monitoring; type: in vivo, Sprague Dawley rats; details: through the study; 1.5 and 4.5 mg/kg PO twice a day versus vehicle
Description: (§1) Altogether 76 adult male Sprague Dawley rats, purchased from Harlan Laboratories, (Israel), and weighing 300-350 g were used for the experiment. Animals were housed at a standard temperature (20-24°C) and in a light-controlled environment (12 hours light / 12 hours dark) with ad libitum access to food and water. Animals were grouped as follows: • Group 1M: 20 tMCAO animals treated twice-a-day with vehicle from Day 3 (day 1 being day of stroke surgery) to Day 42 (via PO gavage) • Group 2M: 22 tMCAO animals treated twice-a-day with VX-745 (1.5 mg/kg) from Day 3 (day 1 being day of stroke surgery) to Day 42 (via PO gavage) • Group 3M: 21 tMCAO animals treated twice-a-day with VX-745 (4.5 mg/kg) from Day 3 (day 1 being day of stroke surgery) to Day 42 (via PO gavage)
Animals were handled at a minimum for three days before the surgery. Baseline measures were taken before stroke was induced. Stroke surgery occurred on Day 1. On Day 2, 24 hours post-stroke surgery, Neuroscore testing was performed. Only animals reaching and exceeding Neuroscore criteria was included in the study. On Days 3-42, treatment with vehicle or VX-745 was administered twice a day for 40 days via PO (oral) gavage for all groups. Behavioral tests for all groups were conducted on weeks 4 and 6. Animals were sacrificed on Day 44 and brains were harvested. […]

rat model of stroke [2] = assay: transient MCAO in rats: body swing test; type: in vivo, Sprague Dawley rats; details: particularly in the 4.5 mg/kg dose group
Description: as §1
(§2) Transient middle cerebral artery occlusion was performed according to the method described in R. Schmid-Elsaesser et al., Stroke, 29(10):2162-2170 (1998). […]
Body Swing Test. […] A swing was recorded whenever the rat moved its head out of the vertical axis to either side. Before attempting another swing, the rat had must return to the vertical position for the next swing to be counted. Twenty (20) total swings were counted. […] Body swing scores were expressed as a percentage of rightward over total swings. […]

[3] = treatment of rheumatoid arthritis; cited from earlier work
cytokine signaling = details: relative to IC50 for cytokine production; Alam 2015; cited from earlier work
[4] = brain versus blood drug concentration in pre-clinical studies; type: in vivo
rat model of stroke [5] = assay: transient MCAO in rats: neurological scoring (Neuroscore, mNSS); type: in vivo, Sprague Dawley rats
Description: as §1
Transient middle cerebral artery occlusion was performed according to the method described in R. Schmid-Elsaesser et al., Stroke, 29(10):2162-2170 (1998). The right Common Carotid Artery (CCA) was exposed through a midline neck incision and carefully dissected free from surrounding nerves and fascia - from its bifurcation to the base of the skull. The occipital artery branches of the ECA (External Carotid Artery) were then isolated, and these branches were dissected and coagulated. The ECA was dissected further distally and coagulated along with the terminal lingual and maxillary artery branches, which was then divided. The ICA (Internal Carotid Artery) was isolated and carefully separated from the adjacent vagus nerve, and the pterygopalatine artery was ligated close to its origin with a 5-0 nylon suture (SMI, Belgium). Next, a 4-0 silk suture was tied loosely around the mobilized ECA stump, and a 4 cm length of 4-0 monofilament nylon suture (the tip of the suture was blunted by using a flame, and the suture was coated with polylysine, prior to insertion) was inserted through the proximal ECA into the ICA and thence into the circle of Willis, effectively occluding the MCA. The surgical wound was closed and the animals were returned to their cages to recover from anesthesia. […]

IL-1β = assay: transient MCAO in rats: IL-1β ELISA of brain at study termination; type: in vivo, Sprague Dawley rats; details: study termination (Day 44); right minus left hemisphere; trend to lower concentrations in treated groups
Excerpt: The brains of all animals were harvested on Day 44. Rats were sacrificed by CO2 inhalation. Brains were harvested from all animals in each group, divided to left and right hemisphere, weighed, and snap frozen.
Brains were harvested at study termination. Each brain was dissected into two hemispheres and each hemisphere was weighed and enclosed into tubes marked Left or Right. Each tube was immediately frozen in liquid nitrogen and stored at (-80)°C. The tissues were defrosted and homogenized in 1 ml / 200 mg tissue of 20mM Tris-HCL pH 7.4 containing a protease inhibitor cocktail (50 µl/ml). Samples were centrifuged at 10,000 g for 15 min at 4°. Clear supernatants were aliquoted (150 µl/aliquot) and stored at (-80)°C until EILSA assays were performed. ELISA assay was executed according to kit instructions. Standards and samples were tested in duplicates.
Following study termination, animals were also tested for IL-1β brain levels using the ELISA system (see Figure 8 for standard curves). The variability of the results was too large to allow definitive conclusions. All the results below the Lower Limit of Quantification (LLOQ) were assigned the LLOQ value of 5pg/ml. Then, results for the uninjured left side were subtracted from the results of the right side. The distribution for individual rats is given in the figure below (n=18 in each of the study groups) (Figure 9).

rat model of stroke [6] = assay: transient MCAO in rats: forelimb placement test; type: in vivo, Sprague Dawley rats; details: Week 4 and Week 6; 1.5 and 4.5 mg/kg PO twice a day
Description: as §1
Transient middle cerebral artery occlusion was performed according to the method described in R. Schmid-Elsaesser et al., Stroke, 29(10):2162-2170 (1998). The right Common Carotid Artery (CCA) was exposed through a midline neck incision and carefully dissected free from surrounding nerves and fascia - from its bifurcation to the base of the skull. The occipital artery branches of the ECA (External Carotid Artery) were then isolated, and these branches were dissected and coagulated. The ECA was dissected further distally and coagulated along with the terminal lingual and maxillary artery branches, which was then divided. […]

rat model of stroke [7] = assay: transient MCAO in rats: stepping test; type: in vivo, Sprague Dawley rats; details: Week 4 up to Week 6; 1.5 and 4.5 mg/kg PO twice a day
Description: as §1, §2
Stepping Test. […] The animal was held with its hind limbs fixed in one hand and the forelimb, not to be monitored, in the other, while the unrestrained fore-paw touches the table. The number of adjusting steps were counted while the animal was moved sideways along the table surface (85 cm during approximately five seconds), in the forehand & backhand direction for both forelimbs. […]

[8] = transient MCAO in rats: mortality and clinical signs; type: in vivo
Description: Animals were handled at a minimum for three days before the surgery. Baseline measures were taken before stroke was induced. Stroke surgery occurred on Day 1. On Day 2, 24 hours post-stroke surgery, Neuroscore testing was performed. Only animals reaching and exceeding Neuroscore criteria was included in the study. […] Behavioral tests for all groups were conducted on weeks 4 and 6. Animals were sacrificed on Day 44 and brains were harvested.

Structure (SMILES)	effect on recovery from neurologic deficit (animal models of stroke)	whole blood IC50 (cytokine production)	body weight, differences between groups [1]	body swing test, outcome (rat model of stroke [2])	mean blood concentration [3]	IC50 for inhibition of cytokine signaling (cytokine signaling)	drug concentrations in the brain compared with the blood [4]	neuroscore, difference between the two doses (rat model of stroke [5]; 1.5 mg/kg versus 4.5 mg/kg PO twice a day (Figure 2))	neuroscore delta (change from Day 2 to actual Week) versus vehicle treated control group (rat model of stroke [5]; Week 4 or Week 6, 1.5 and 4.5 mg/kg PO twice a day, Day 3 to Day 42)	absolute neuroscore versus vehicle treated control group (rat model of stroke [5]; Weeks 4 and 6, 1.5 and 4.5 mg/kg PO twice a day, Day 3 to Day 42, start 48 hours after reperfusion)	IL-1β levels in the brain, differences between groups (IL-1β)	forelimb placement test, sensory motor improvement versus vehicle treated control group (rat model of stroke [6])	stepping test, sensory motor deficit (number of steps, left forelimb) versus vehicle treated control group (rat model of stroke [7])	rats that died after treatment initiation ([8]; 1.5 mg/kg group (2M), within two weeks of treatment initiation)	general clinical signs, differences between groups ([8]; 1.5 and 4.5 mg/kg PO twice a day versus vehicle)
C[S+]([O-])c1ccc(-c2nc(-c3ccc(F)cc3)c(-c3ccncc3)[nH]2)cc1 (stereo not drawn) [SB203850]	no significant effect														
O=c1ncn2nc(Sc3ccc(F)cc3F)ccc2c1-c1c(Cl)cccc1Cl [VX-745]		0.065 to 0.08 mg/L	No statistically significant differences	near normalization	approximately 75 ng/mL	half that for cytokine production	approximately two-fold	statistically significant difference	statistically significant difference	statistically significant difference	No statistically significant differences	Statistically significant differences	Statistically significant differences	one	no observed differences
